Experimental data as given in ChEMBL document CHEMBL1201862, “PubChem BioAssay data set” (2004).
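Five compound concentrations were applied to cells in 96-well plates for 48 hours; endpoints were derived by simple linear interpolation of the resulting dose-response curve. The concentration for 50% growth inhibition is given as GI50.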 Calls of active or inactive are those of the source. No stated cut-off is given here; in the data, active = GI50 up to about 1.1 µM and inactive = higher.

Tests used:
Experiment in all cases: NCI tumour cell line growth inhibition, 48 h
[1] = system: M14
[2] = system: LOX IMVI
[3] = system: NCI/ADR-RES
[4] = system: OVCAR-4
[5] = system: EKVX
[6] = system: IGROV-1
[7] = system: HOP-62
[8] = system: HOP-92
[9] = system: NCI-H23
[10] = system: HCT-15
[11] = system: UO-31
[12] = system: HCC 2998
[13] = system: SN12C
[14] = system: HL-60
[15] = system: SK-MEL-28
[16] = system: OVCAR-8
[17] = system: NCI-H226
[18] = system: RXF 393
[19] = system: UACC-62
[20] = system: MDA-MB-435

SMILES	GI50 [1]	GI50 [2]	GI50 [3]	GI50 [4]	GI50 [5]	GI50 [6]	GI50 [7]	GI50 [8]	GI50 [9]	GI50 [10] [µM]	GI50 [11]	GI50 [12]	GI50 [13]	GI50 [14]	GI50 [15]	GI50 [16]	GI50 [17]	GI50 [18]	GI50 [19]	GI50 [20]
CC1CN=C(N(Cc2ccccc2)C(=O)Nc2ccc(Cl)c(Cl)c2)S1 (centres undefined)	18.3 µM (inactive)	21.4 µM (inactive)	21.4 µM (inactive)	61.8 µM (inactive)	53.3 µM (inactive)	32.5 µM (inactive)	87.5 µM (inactive)	21.6 µM (inactive)	43.1 µM (inactive)	15.7	25.8 µM (inactive)	> 10 µM (inactive)	17.2 µM (inactive)	> 10 µM (inactive)	26.1 µM (inactive)	49.3 µM (inactive)	–	–	–	–
CC1(C)CNCC(C)(OCc2ccccc2)C(=O)NC(C)(C)CNCC(C)(OCc2ccccc2)C(=O)N1 (centres undefined)	> 10 µM (inactive)	> 10 µM (inactive)	–	–	> 10 µM (inactive)	> 10 µM (inactive)	> 10 µM (inactive)	0.385 µM (active)	> 10 µM (inactive)	> 10	6 µM (inactive)	> 10 µM (inactive)	> 10 µM (inactive)	–	> 10 µM (inactive)	> 10 µM (inactive)	> 10 µM (inactive)	3.78 µM (inactive)	> 10 µM (inactive)	> 10 µM (inactive)
CCOC(=O)C(=[N+]=[N-])C(=O)CN1C(=O)c2ccccc2C1=O	> 100 µM (inactive)	–	–	> 100 µM (inactive)	> 100 µM (inactive)	> 100 µM (inactive)	> 100 µM (inactive)	> 100 µM (inactive)	> 100 µM (inactive)	> 100	> 100 µM (inactive)	> 100 µM (inactive)	> 100 µM (inactive)	–	> 100 µM (inactive)	> 100 µM (inactive)	–	> 100 µM (inactive)	> 100 µM (inactive)	> 100 µM (inactive)
COc1c2c(cc3c1-c1c(cc4c(c1OC)OCO4)C1OC3C(C)C1C)OCO2.COc1cc2c(c(OC)c1OC)-c1c(cc3c(c1OC)OCO3)C1OC2C(C)C1C (centres undefined)	> 100 µM (inactive)	68.4 µM (inactive)	–	> 100 µM (inactive)	87.3 µM (inactive)	70.6 µM (inactive)	> 100 µM (inactive)	> 100 µM (inactive)	> 100 µM (inactive)	67.9	94.8 µM (inactive)	56.4 µM (inactive)	> 100 µM (inactive)	28.9 µM (inactive)	> 100 µM (inactive)	57 µM (inactive)	> 100 µM (inactive)	> 100 µM (inactive)	73.8 µM (inactive)	> 100 µM (inactive)
COCCOCC(=O)N(CCn1ccc(NC(c2ccccc2)(c2ccccc2)c2ccccc2)nc1=O)CCn1cnc2nc(N)[nH]c(=O)c21	> 100 µM (inactive)	> 100 µM (inactive)	–	> 100 µM (inactive)	> 100 µM (inactive)	> 100 µM (inactive)	> 100 µM (inactive)	> 100 µM (inactive)	> 100 µM (inactive)	> 100	> 100 µM (inactive)	> 100 µM (inactive)	> 100 µM (inactive)	> 100 µM (inactive)	> 100 µM (inactive)	> 100 µM (inactive)	> 100 µM (inactive)	> 100 µM (inactive)	> 100 µM (inactive)	–
COc1cccc(/C=C2\CCCCCC2=O)c1	> 100 µM (inactive)	> 100 µM (inactive)	–	> 100 µM (inactive)	> 100 µM (inactive)	> 100 µM (inactive)	> 100 µM (inactive)	> 100 µM (inactive)	> 100 µM (inactive)	> 100	81.5 µM (inactive)	> 100 µM (inactive)	> 100 µM (inactive)	–	> 100 µM (inactive)	–	> 100 µM (inactive)	–	> 100 µM (inactive)	48.1 µM (inactive)
CC(=O)OC1COC(Nn2c(=O)[nH]c3ccccc3c2=O)C(OC(C)=O)C1OC(C)=O (centres undefined)	> 100 µM (inactive)	> 100 µM (inactive)	17.9 µM (inactive)	–	36.1 µM (inactive)	> 100 µM (inactive)	> 100 µM (inactive)	> 100 µM (inactive)	> 100 µM (inactive)	> 100	81.1 µM (inactive)	–	> 100 µM (inactive)	> 100 µM (inactive)	> 100 µM (inactive)	86.9 µM (inactive)	51.9 µM (inactive)	–	> 100 µM (inactive)	> 100 µM (inactive)
NC(=O)c1ccc(/N=N/O)nc1	> 100 µM (inactive)	–	> 100 µM (inactive)	> 100 µM (inactive)	> 100 µM (inactive)	> 100 µM (inactive)	> 100 µM (inactive)	–	> 100 µM (inactive)	> 100	> 100 µM (inactive)	> 100 µM (inactive)	> 100 µM (inactive)	> 100 µM (inactive)	> 100 µM (inactive)	> 100 µM (inactive)	> 100 µM (inactive)	–	> 100 µM (inactive)	–
CS(=O)(=O)C[S+]([O-])C[S+]([O-])C[S+]([O-])CC(NC(=O)CCC(N)C(=O)O)C(=O)O (centres undefined)	> 100 µM (inactive)	> 100 µM (inactive)	> 100 µM (inactive)	> 100 µM (inactive)	> 100 µM (inactive)	> 100 µM (inactive)	> 100 µM (inactive)	> 100 µM (inactive)	> 100 µM (inactive)	> 100	> 100 µM (inactive)	> 100 µM (inactive)	> 100 µM (inactive)	32.8 µM (inactive)	> 100 µM (inactive)	> 100 µM (inactive)	–	–	> 100 µM (inactive)	> 100 µM (inactive)
CN(C)CCNC(=O)c1cccc2cc3ccc4ccccc4c3nc12	0.2 µM (active)	0.0502 µM (active)	–	0.115 µM (active)	0.145 µM (active)	0.105 µM (active)	0.0957 µM (active)	0.143 µM (active)	0.0851 µM (active)	0.0684	0.0481 µM (active)	0.104 µM (active)	0.0531 µM (active)	0.0336 µM (active)	0.198 µM (active)	0.0594 µM (active)	0.112 µM (active)	0.111 µM (active)	0.0776 µM (active)	–
O=C1C(Cl)=C(NCCF)C(=O)c2ncccc21	1.61 µM (inactive)	0.724 µM (active)	–	–	1.68 µM (inactive)	1.95 µM (inactive)	2.04 µM (inactive)	–	1.6 µM (inactive)	2.08	1.32 µM (inactive)	1.36 µM (inactive)	1.91 µM (inactive)	5.11 µM (inactive)	1.87 µM (inactive)	2.03 µM (inactive)	1.92 µM (inactive)	1.84 µM (inactive)	0.977 µM (active)	0.212 µM (active)
C[C@]12CC[C@H](OCCC#N)CC1=CC[C@@H]1C2CC[C@]2(C)/C(=N/OCCC#N)CCC12 (some centres undefined)	38.3 µM (inactive)	5.7 µM (inactive)	–	29 µM (inactive)	> 94.8 µM (inactive)	> 100 µM (inactive)	> 69.2 µM (inactive)	14.3 µM (inactive)	10.8 µM (inactive)	> 100	> 100 µM (inactive)	> 100 µM (inactive)	> 100 µM (inactive)	2.48 µM (inactive)	> 74.6 µM (inactive)	> 92.7 µM (inactive)	> 100 µM (inactive)	25.4 µM (inactive)	21.9 µM (inactive)	–
Cc1ccc(/C=N/NS(=O)(=O)c2ccccc2)cc1	> 100 µM (inactive)	> 100 µM (inactive)	–	> 100 µM (inactive)	> 100 µM (inactive)	> 100 µM (inactive)	> 100 µM (inactive)	> 100 µM (inactive)	> 100 µM (inactive)	> 100	> 100 µM (inactive)	> 100 µM (inactive)	> 100 µM (inactive)	> 100 µM (inactive)	> 100 µM (inactive)	> 100 µM (inactive)	> 100 µM (inactive)	> 100 µM (inactive)	> 100 µM (inactive)	–
COC(=O)c1c(O)c2c(c3c1OC(C)(C)CC3)OC(C)(C)CC2	19.1 µM (inactive)	–	22.1 µM (inactive)	32.2 µM (inactive)	21.2 µM (inactive)	19.6 µM (inactive)	21 µM (inactive)	–	20.1 µM (inactive)	21.2	18.8 µM (inactive)	16.4 µM (inactive)	16 µM (inactive)	15.1 µM (inactive)	26.6 µM (inactive)	17.6 µM (inactive)	19.3 µM (inactive)	–	18.9 µM (inactive)	–
C=CCC1(CN(C)C)CC/C(=C\c2ccc(Cl)cc2)C1=O (centres undefined)	23.7 µM (inactive)	23.8 µM (inactive)	–	31 µM (inactive)	38.9 µM (inactive)	29.2 µM (inactive)	> 100 µM (inactive)	66.8 µM (inactive)	47.5 µM (inactive)	25.1	41.5 µM (inactive)	33.1 µM (inactive)	70.1 µM (inactive)	29.9 µM (inactive)	> 83.2 µM (inactive)	42.3 µM (inactive)	96.8 µM (inactive)	31 µM (inactive)	49.9 µM (inactive)	–
CC(C)(C)OC(=O)C(C#N)C(=O)c1ccc(C(=O)O)[nH]1 (centres undefined)	44.2 µM (inactive)	27.7 µM (inactive)	12.7 µM (inactive)	19.5 µM (inactive)	29.2 µM (inactive)	–	–	12 µM (inactive)	36.3 µM (inactive)	23.2	30.8 µM (inactive)	–	43.1 µM (inactive)	21.7 µM (inactive)	62.2 µM (inactive)	30.1 µM (inactive)	38 µM (inactive)	–	18.3 µM (inactive)	32.3 µM (inactive)
